Laboratory results reported in patent US5288720A, “Angiotensin II receptor blocking 2,3,6 substituted quinazolinones” (American Cyanamid Company, priority 1993, dated 1994).

System: ANGIOTENSIN II VASOPRESSOR RESPONSE
Assay: AII Challenge: blockade of angiotensin II vasopressor response in conscious SHR
Assay type: in vivo, rat (Conscious Male Okamoto-Aoki SHR)
Conditions: SHR n=2
Summary of the method: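 Percent blockade is derived from the systolic pressure rise in mmHg, taking each rat's own predose response as 100%. Rats were conscious male Okamoto-Aoki SHR, 16-20 weeks, ~330 g, with aortic and caval cannulas under local procaine. Compound went i.v., i.p. or orally, then angiotensin II challenges (0.05 and 0.1 ug/kg i.v.) at 30-300 min.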

[1] = 3 mg/kg p.o., AII 0.05 mcg/kg IV, 30 min post dose
[2] = 3 mg/kg p.o., AII 0.05 mcg/kg IV, 60 min post dose
[3] = 3 mg/kg p.o., AII 0.05 mcg/kg IV, 90 min post dose
[4] = 3 mg/kg p.o., AII 0.05 mcg/kg IV, 120 min post dose
[5] = 3 mg/kg p.o., AII 0.05 mcg/kg IV, 180 min post dose
[6] = 3 mg/kg p.o., AII 0.05 mcg/kg IV, 240 min post dose
[7] = 3 mg/kg p.o., AII 0.1 mcg/kg IV, 30 min post dose
[8] = 3 mg/kg p.o., AII 0.1 mcg/kg IV, 60 min post dose
[9] = 3 mg/kg p.o., AII 0.1 mcg/kg IV, 90 min post dose
[10] = 3 mg/kg p.o., AII 0.1 mcg/kg IV, 120 min post dose
[11] = 3 mg/kg p.o., AII 0.1 mcg/kg IV, 180 min post dose
[12] = 3 mg/kg p.o., AII 0.1 mcg/kg IV, 240 min post dose
[13] = 10 mg/kg p.o., AII 0.05 mcg/kg IV, 30 min post dose
[14] = 10 mg/kg p.o., AII 0.05 mcg/kg IV, 60 min post dose
[15] = 10 mg/kg p.o., AII 0.05 mcg/kg IV, 90 min post dose
[16] = 10 mg/kg p.o., AII 0.05 mcg/kg IV, 120 min post dose
[17] = 10 mg/kg p.o., AII 0.05 mcg/kg IV, 180 min post dose
[18] = 10 mg/kg p.o., AII 0.05 mcg/kg IV, 240 min post dose
[19] = 10 mg/kg p.o., AII 0.05 mcg/kg IV, 300 min post dose
[20] = 10 mg/kg p.o., AII 0.1 mcg/kg IV, 30 min post dose
[21] = 10 mg/kg p.o., AII 0.1 mcg/kg IV, 60 min post dose
[22] = 10 mg/kg p.o., AII 0.1 mcg/kg IV, 90 min post dose
[23] = 10 mg/kg p.o., AII 0.1 mcg/kg IV, 120 min post dose
[24] = 10 mg/kg p.o., AII 0.1 mcg/kg IV, 180 min post dose
[25] = 10 mg/kg p.o., AII 0.1 mcg/kg IV, 240 min post dose
[26] = 10 mg/kg p.o., AII 0.1 mcg/kg IV, 300 min post dose
[27] = 10 mg/kg i.v., AII 0.05 mcg/kg IV, 30 min post dose
[28] = 10 mg/kg i.v., AII 0.05 mcg/kg IV, 60 min post dose
[29] = 10 mg/kg i.v., AII 0.05 mcg/kg IV, 90 min post dose
[30] = 10 mg/kg i.v., AII 0.05 mcg/kg IV, 120 min post dose
[31] = 10 mg/kg i.v., AII 0.05 mcg/kg IV, 180 min post dose
[32] = 10 mg/kg i.v., AII 0.05 mcg/kg IV, 240 min post dose
[33] = 10 mg/kg i.v., AII 0.05 mcg/kg IV, 300 min post dose
[34] = 10 mg/kg i.v., AII 0.1 mcg/kg IV, 30 min post dose
[35] = 10 mg/kg i.v., AII 0.1 mcg/kg IV, 60 min post dose
[36] = 10 mg/kg i.v., AII 0.1 mcg/kg IV, 90 min post dose
[37] = 10 mg/kg i.v., AII 0.1 mcg/kg IV, 120 min post dose
[38] = 10 mg/kg i.v., AII 0.1 mcg/kg IV, 180 min post dose
[39] = 10 mg/kg i.v., AII 0.1 mcg/kg IV, 240 min post dose
[40] = 10 mg/kg i.v., AII 0.1 mcg/kg IV, 300 min post dose

CCCCc1nc2ccc(C(O)C3CCCN(C)C3=O)cc2c(=O)n1Cc1ccc(-c2ccccc2-c2nn[nH]n2)cc1 (single isomer, unassigned; isomer 2) [Example 38, 2-Butyl-6-hydroxy(1-methyl-2-oxo-3-piperidinyl)methyl-3-[[2'-(1H-tetrazol-5-yl)[1,1'-biphenyl]-4-yl]methyl-4(3H)-quinazolinone isomer 2]
% Inhibition of AII vasopressor response [1]: 70% | Average Change (systolic blood pressure response to AII) [1]: 7.5 mmHg | % Inhibition of AII vasopressor response [2]: 50% | Average Change (systolic blood pressure response to AII) [2]: 12.5 mmHg | % Inhibition of AII vasopressor response [3]: 46% | Average Change (systolic blood pressure response to AII) [3]: 13.5 mmHg | % Inhibition of AII vasopressor response [4]: 70% | Average Change (systolic blood pressure response to AII) [4]: 7.5 mmHg | % Inhibition of AII vasopressor response [5]: 70% | Average Change (systolic blood pressure response to AII) [5]: 7.5 mmHg | % Inhibition of AII vasopressor response [6]: 40% | Average Change (systolic blood pressure response to AII) [6]: 15 mmHg | % Inhibition of AII vasopressor response [7]: 57% | Average Change (systolic blood pressure response to AII) [7]: 15 mmHg | % Inhibition of AII vasopressor response [8]: 20% | Average Change (systolic blood pressure response to AII) [8]: 27.5 mmHg | % Inhibition of AII vasopressor response [9]: 32% | Average Change (systolic blood pressure response to AII) [9]: 23.5 mmHg | % Inhibition of AII vasopressor response [10]: 52% | Average Change (systolic blood pressure response to AII) [10]: 16.5 mmHg | % Inhibition of AII vasopressor response [11]: 28% | Average Change (systolic blood pressure response to AII) [11]: 25 mmHg | % Inhibition of AII vasopressor response [12]: 16% | Average Change (systolic blood pressure response to AII) [12]: 29 mmHg | % Inhibition of AII vasopressor response [13]: 50% | Average Change (systolic blood pressure response to AII) [13]: 25 mmHg | % Inhibition of AII vasopressor response [14]: 40% | Average Change (systolic blood pressure response to AII) [14]: 30 mmHg | % Inhibition of AII vasopressor response [15]: 25% | Average Change (systolic blood pressure response to AII) [15]: 37.5 mmHg | % Inhibition of AII vasopressor response [16]: 50% | Average Change (systolic blood pressure response to AII) [16]: 25 mmHg | % Inhibition of AII vasopressor response [17]: 5% | Average Change (systolic blood pressure response to AII) [17]: 47.5 mmHg | % Inhibition of AII vasopressor response [18]: -5% | Average Change (systolic blood pressure response to AII) [18]: 52.5 mmHg | % Inhibition of AII vasopressor response [19]: 0% | Average Change (systolic blood pressure response to AII) [19]: 50 mmHg | % Inhibition of AII vasopressor response [20]: 35% | Average Change (systolic blood pressure response to AII) [20]: 37.5 mmHg | % Inhibition of AII vasopressor response [21]: 39% | Average Change (systolic blood pressure response to AII) [21]: 35 mmHg | % Inhibition of AII vasopressor response [22]: 35% | Average Change (systolic blood pressure response to AII) [22]: 37.5 mmHg | % Inhibition of AII vasopressor response [23]: 43% | Average Change (systolic blood pressure response to AII) [23]: 32.5 mmHg | % Inhibition of AII vasopressor response [24]: 13% | Average Change (systolic blood pressure response to AII) [24]: 50 mmHg | % Inhibition of AII vasopressor response [25]: 22% | Average Change (systolic blood pressure response to AII) [25]: 45 mmHg | % Inhibition of AII vasopressor response [26]: 4% | Average Change (systolic blood pressure response to AII) [26]: 55 mmHg

CCCCc1nc2ccc(C(OC)C3CCCN(C)C3=O)cc2c(=O)n1Cc1ccc(-c2ccccc2-c2nn[nH]n2)cc1 (single isomer, unassigned; isomer 1) [Example 42, 2-Butyl-6-methoxy(1-methyl-2-oxo-3-piperidinyl)methyl]-3-[[2' -1H-tetrazol-5-yl)[1,1'-biphenyl]-4-yl]methyl-4(3H)-quinazolinone isomer 1]
% Inhibition of AII vasopressor response [1]: 19% | Average Change (systolic blood pressure response to AII) [1]: 32.5 mmHg | % Inhibition of AII vasopressor response [2]: 19% | Average Change (systolic blood pressure response to AII) [2]: 32.5 mmHg | % Inhibition of AII vasopressor response [3]: 50% | Average Change (systolic blood pressure response to AII) [3]: 20 mmHg | % Inhibition of AII vasopressor response [4]: 19% | Average Change (systolic blood pressure response to AII) [4]: 32.5 mmHg | % Inhibition of AII vasopressor response [5]: -2% | Average Change (systolic blood pressure response to AII) [5]: 41 mmHg | % Inhibition of AII vasopressor response [7]: 22% | Average Change (systolic blood pressure response to AII) [7]: 35 mmHg | % Inhibition of AII vasopressor response [8]: 22% | Average Change (systolic blood pressure response to AII) [8]: 35 mmHg | % Inhibition of AII vasopressor response [9]: 13% | Average Change (systolic blood pressure response to AII) [9]: 39 mmHg | % Inhibition of AII vasopressor response [10]: 11% | Average Change (systolic blood pressure response to AII) [10]: 40 mmHg | % Inhibition of AII vasopressor response [11]: 0% | Average Change (systolic blood pressure response to AII) [11]: 45 mmHg | % Inhibition of AII vasopressor response [27]: 100% | Average Change (systolic blood pressure response to AII) [27]: 0 mmHg | % Inhibition of AII vasopressor response [28]: 86% | Average Change (systolic blood pressure response to AII) [28]: 5 mmHg | % Inhibition of AII vasopressor response [29]: 93% | Average Change (systolic blood pressure response to AII) [29]: 2.5 mmHg | % Inhibition of AII vasopressor response [30]: 93% | Average Change (systolic blood pressure response to AII) [30]: 2.5 mmHg | % Inhibition of AII vasopressor response [31]: 64% | Average Change (systolic blood pressure response to AII) [31]: 12.5 mmHg | % Inhibition of AII vasopressor response [32]: 43% | Average Change (systolic blood pressure response to AII) [32]: 20 mmHg | % Inhibition of AII vasopressor response [33]: 43% | Average Change (systolic blood pressure response to AII) [33]: 20 mmHg | % Inhibition of AII vasopressor response [34]: 100% | Average Change (systolic blood pressure response to AII) [34]: 0 mmHg | % Inhibition of AII vasopressor response [35]: 82% | Average Change (systolic blood pressure response to AII) [35]: 7.5 mmHg | % Inhibition of AII vasopressor response [36]: 76% | Average Change (systolic blood pressure response to AII) [36]: 10 mmHg | % Inhibition of AII vasopressor response [37]: 65% | Average Change (systolic blood pressure response to AII) [37]: 15 mmHg | % Inhibition of AII vasopressor response [38]: 59% | Average Change (systolic blood pressure response to AII) [38]: 17.5 mmHg | % Inhibition of AII vasopressor response [39]: 65% | Average Change (systolic blood pressure response to AII) [39]: 15 mmHg | % Inhibition of AII vasopressor response [40]: 47% | Average Change (systolic blood pressure response to AII) [40]: 22.5 mmHg
